In this experiment the target is T1, recombinant human SYK360-635 (Homo sapiens, UniProt P43405).
T1 construct: made in house
The experiment in a line: Determination of IC50 of Spleen Tyrosine Kinase (SYK) inhibition, 33P ATP filtration assay. The class given is biochemical. The following applies: SYK aa 360-635 0.5 nM; ATP 20 μM, peptide 5 μM, 0.1% BSA; read-out: SYK_ENZYME_FILTRATION/v1, BSA.
On to `CC(C)NC(=O)c1c[nH]c2ncc(-c3nn(Cc4ccccc4)c4cc(Cl)ccc34)nc12` [Example I-308, 2-(1-Benzyl-6-chloro-1H-indazol-3-yl)-5H-pyrrolo[2,3-b]pyrazine-7-carboxylic acid isopropylamide], for which the IC50 was found to be 860 nM.
In the case of `NC(=O)c1c[nH]c2ncc(-c3nn(CC(=O)N4CCOCC4)c4cc(F)ccc34)nc12` [Example I-314, 2-[6-Fluoro-1-(2-morpholin-4-yl-2-oxo-ethyl)-1H-indazol-3-yl]-5H-pyrrolo[2,3-b]pyrazine-7-carboxylic acid amide] it was 155 nM; in that of `Cn1nc(-c2cnc3[nH]cc(C(=O)NC(CO)CO)c3n2)c2ccc(Cl)cc21` [Example I-316, 2-(6-Chloro-1-methyl-1H-indazol-3-yl)-5H-pyrrolo[2,3-b]pyrazine-7-carboxylic acid (2-hydroxy-1-hydroxymethyl-ethyl)-amide], 14.6 nM; in that of `Cn1nc(-c2cnc3[nH]cc(C(=O)NCC4CC4)c3n2)c2ccc(Cl)cc21` [Example I-317, 2-(6-Chloro-1-methyl-1H-indazol-3-yl)-5H-pyrrolo[2,3-b]pyrazine-7-carboxylic acid cyclopropylmethyl-amide], 11.3 nM.
For `CC(C)(CO)NC(=O)c1c[nH]c2ncc(-n3ncc4cc(Cl)ccc43)nc12` [Example I-318, 2-(5-Chloro-indazol-1-yl)-5H-pyrrolo[2,3-b]pyrazine-7-carboxylic acid (2-hydroxy-1,1-dimethyl-ethyl)-amide] the value was 56.8 nM; for `Cc1nn(-c2cnc3[nH]cc(C(=O)NC(C)(C)CO)c3n2)c2ccc(Cl)cc12` [Example I-319, 2-(5-Chloro-3-methyl-indazol-1-yl)-5H-pyrrolo[2,3-b]pyrazine-7 carboxylic acid (2-hydroxy-1,1-dimethyl-ethyl)-amide], 34.6 nM.
In the case of `CC(C)(CO)NC(=O)c1c[nH]c2ncc(-n3ncc4cc(F)ccc43)nc12` [Example I-320, 2-(5-Fluoro-indazol-1-yl)-5H-pyrrolo[2,3-b]pyrazine-7-carboxylic acid (2-hydroxy-1,1-dimethyl-ethyl)-amide] it was 56.7 nM; in that of `CC(C)(CO)NC(=O)c1c[nH]c2ncc(-n3ncc4ccccc43)nc12` [Example I-321, 2-Indazol-1-yl-5H-pyrrolo[2,3-b]pyrazine-7-carboxylic acid (2-hydroxy-1,1-dimethyl-ethyl)-amide], 150 nM; in that of `COc1ccc2c(cnn2-c2cnc3[nH]cc(C(=O)NC(C)(C)C)c3n2)c1` [Example I-323, 2-(5-Methoxy-indazol-1-yl)-5H-pyrrolo[2,3-b]pyrazine-7-carboxylic acid tert-butylamide], 25.6 nM.
Take `CC(C)(C)NC(=O)c1c[nH]c2ncc(-n3ncc4cc(Cl)ccc43)nc12` [Example I-324, 2-(5-Chloro-indazol-1-yl)-5H-pyrrolo[2,3-b]pyrazine-7-carboxylic acid tert-butylamide]: the IC50 came out at 108 nM.
`CC(C)(C)NC(=O)c1c[nH]c2ncc(-n3ncc4cc(OC(F)F)ccc43)nc12` [Example I-325, 2-(5-Difluoromethoxy-indazol-1-yl)-5H-pyrrolo[2,3-b]pyrazine-7-carboxylic acid tert-butylamide]: the IC50 stood at 37.6 nM.
Regarding `CC(C)(C)NC(=O)c1c[nH]c2ncc(-n3ncc4cc(F)ccc43)nc12` [Example I-326, 2-(5-Fluoro-indazol-1-yl)-5H-pyrrolo[2,3-b]pyrazine-7-carboxylic acid tert-butylamide], the IC50 stood at 43.4 nM.
With `CC(C)(C)NC(=O)c1c[nH]c2ncc(-n3ncc4cc(F)c(F)cc43)nc12` [Example I-327, 2-(5,6-Difluoro-indazol-1-yl)-5H-pyrrolo[2,3-b]pyrazine-7-carboxylic acid tert-butylamide], the IC50 is 221 nM.
As for `CC(C)(C)NC(=O)c1c[nH]c2ncc(-c3nccc4cc[nH]c34)nc12` [Example I-328, 2-(1H-Pyrrolo[2,3-c]pyridin-7-yl)-5H-pyrrolo[2,3-b]pyrazine-7 carboxylic acid tert-butylamide], the IC50 came to 970 nM.
For the compound `CC(C)(C)NC(=O)c1c[nH]c2ncc(-n3ncc4ccc(Cl)cc43)nc12` [Example I-329, 2-(6-Chloro-indazol-1-yl)-5H-pyrrolo[2,3-b]pyrazine-7-carboxylic acid tert-butylamide], the IC50 was 82.2 nM.
Take `CC(C)(C)NC(=O)c1c[nH]c2ncc(-n3ncc4ccc(C(F)(F)F)cc43)nc12` [Example I-330, 2-(6-Trifluoromethyl-indazol-1-yl)-5H-pyrrolo[2,3-b]pyrazine-7-carboxylic acid tert-butylamide]: the IC50 stood at 988 nM.
With `Cc1ccc2cnn(-c3cnc4[nH]cc(C(=O)NC(C)(C)C)c4n3)c2c1` [Example I-331, 2-(6-Methyl-indazol-1-yl)-5H-pyrrolo[2,3-b]pyrazine-7-carboxylic acid tert-butylamide], the IC50 came out at 69.5 nM.
Turning to `CC(C)(C)NC(=O)c1c[nH]c2ncc(-n3ncc4ccc(F)cc43)nc12` [Example I-332, 2-(6-Fluoro-indazol-1-yl)-5H-pyrrolo[2,3-b]pyrazine-7-carboxylic acid tert-butylamide], the IC50 was 107 nM.
In the case of `Cc1ccc2c(cnn2-c2cnc3[nH]cc(C(=O)NC(C)(C)C)c3n2)c1` [Example I-333, 2-(5-Methyl-indazol-1-yl)-5H-pyrrolo[2,3-b]pyrazine-7-carboxylic acid tert-butylamide] it was 63.9 nM; in that of `CC(C)(C)NC(=O)c1c[nH]c2ncc(-n3nc(C(F)(F)F)c4c3CCC4)nc12` [Example I-334, 2-(3-Trifluoromethyl-5,6-dihydro-4H-cyclopentapyrazol-1-yl)-5H-pyrrolo[2,3-b]pyrazine-7-carboxylic acid tert-butylamide], 1840 nM; in that of `CC(C)(C)NC(=O)c1c[nH]c2ncc(-n3nc(Cl)c4ccccc43)nc12` [Example I-335, 2-(3-Chloro-indazol-1-yl)-5H-pyrrolo[2,3-b]pyrazine-7-carboxylic acid tert-butylamide], 61.6 nM.
Consider `CC(C)(C)NC(=O)c1c[nH]c2ncc(-n3ncc4cc(C(F)(F)F)ccc43)nc12` [Example I-337, 2-(5-Trifluoromethyl-indazol-1-yl)-5H-pyrrolo[2,3-b]pyrazine-7-carboxylic acid tert-butylamide], for which the IC50 is 595 nM.
In the case of `CN(C)C(=O)CCn1nc(-c2cnc3[nH]cc(C(=O)NC(C)(C)C)c3n2)c2cc(OC(F)F)ccc21` [Example I-339, 2-[5-Difluoromethoxy-1-(2-dimethylcarbamoyl-ethyl)-1H-indazol-3-yl]-5H-pyrrolo[2,3-b]pyrazine-7-carboxylic acid tert-butylamide] it was 17.9 nM; in that of `CC(C)(C)NC(=O)c1c[nH]c2ncc(-c3nn(CC4CN(Cc5ccccc5)CCO4)c4ccc(OC(F)F)cc34)nc12` (stereo not shown) [Example I-340, 2-[1-(4-Benzyl-morpholin-2-ylmethyl)-5-difluoromethoxy-1H-indazol-3-yl]-5H-pyrrolo[2,3-b]pyrazine-7-carboxylic acid tert-butylamide], 295 nM.
For `CN1CCOC(Cn2nc(-c3cnc4[nH]cc(C(=O)NC(C)(C)C)c4n3)c3cc(OC(F)F)ccc32)C1` (stereo not shown) [Example I-342, 2-[5-Difluoromethoxy-1-(4-methyl-morpholin-2-ylmethyl)-1H-indazol-3-yl]-5H-pyrrolo[2,3-b]pyrazine-7-carboxylic acid tert-butylamide] the value was 17.2 nM.

Values taken from patent publication US8658646B2, “Pyrrolopyrazine kinase inhibitors” (Hoffmann-LaRoche Inc., priority 2011, dated 2014).
